From ChEMBL document CHEMBL1136903, “Spiroimidazolidinone NPC1L1 inhibitors. 1: Discovery by 3D-similarity-based virtual screening” (Bioorg Med Chem Lett, 2009)
pIC50: −log10 of the molar value. Calls of active or inactive are those of the source. The calls are words filed in the database; no cut-off is given here.

Experiments:
[1] = biological target: T1, NPC1-like intracellular cholesterol transporter 1 (Homo sapiens, UniProt Q9UHC9); test: Displacement of [35S](2S,3S,4S,5R,6S)-6-(4-((2S,3R)-3-((S)-3-(4-fluorophenyl)-3-hydroxypropyl)-1-(4-(3-(methylsulfonamido)prop-1-ynyl)phenyl)-4-oxoazetidin-2-yl)phenoxy)-3,4,5-trihydroxytetrahydro-2H-pyran-2-carboxylic acid from human recombinant NPC1L1 expressed in HEK293 cells; type: cell-based
T1 sequence (Q9UHC9 whole entry): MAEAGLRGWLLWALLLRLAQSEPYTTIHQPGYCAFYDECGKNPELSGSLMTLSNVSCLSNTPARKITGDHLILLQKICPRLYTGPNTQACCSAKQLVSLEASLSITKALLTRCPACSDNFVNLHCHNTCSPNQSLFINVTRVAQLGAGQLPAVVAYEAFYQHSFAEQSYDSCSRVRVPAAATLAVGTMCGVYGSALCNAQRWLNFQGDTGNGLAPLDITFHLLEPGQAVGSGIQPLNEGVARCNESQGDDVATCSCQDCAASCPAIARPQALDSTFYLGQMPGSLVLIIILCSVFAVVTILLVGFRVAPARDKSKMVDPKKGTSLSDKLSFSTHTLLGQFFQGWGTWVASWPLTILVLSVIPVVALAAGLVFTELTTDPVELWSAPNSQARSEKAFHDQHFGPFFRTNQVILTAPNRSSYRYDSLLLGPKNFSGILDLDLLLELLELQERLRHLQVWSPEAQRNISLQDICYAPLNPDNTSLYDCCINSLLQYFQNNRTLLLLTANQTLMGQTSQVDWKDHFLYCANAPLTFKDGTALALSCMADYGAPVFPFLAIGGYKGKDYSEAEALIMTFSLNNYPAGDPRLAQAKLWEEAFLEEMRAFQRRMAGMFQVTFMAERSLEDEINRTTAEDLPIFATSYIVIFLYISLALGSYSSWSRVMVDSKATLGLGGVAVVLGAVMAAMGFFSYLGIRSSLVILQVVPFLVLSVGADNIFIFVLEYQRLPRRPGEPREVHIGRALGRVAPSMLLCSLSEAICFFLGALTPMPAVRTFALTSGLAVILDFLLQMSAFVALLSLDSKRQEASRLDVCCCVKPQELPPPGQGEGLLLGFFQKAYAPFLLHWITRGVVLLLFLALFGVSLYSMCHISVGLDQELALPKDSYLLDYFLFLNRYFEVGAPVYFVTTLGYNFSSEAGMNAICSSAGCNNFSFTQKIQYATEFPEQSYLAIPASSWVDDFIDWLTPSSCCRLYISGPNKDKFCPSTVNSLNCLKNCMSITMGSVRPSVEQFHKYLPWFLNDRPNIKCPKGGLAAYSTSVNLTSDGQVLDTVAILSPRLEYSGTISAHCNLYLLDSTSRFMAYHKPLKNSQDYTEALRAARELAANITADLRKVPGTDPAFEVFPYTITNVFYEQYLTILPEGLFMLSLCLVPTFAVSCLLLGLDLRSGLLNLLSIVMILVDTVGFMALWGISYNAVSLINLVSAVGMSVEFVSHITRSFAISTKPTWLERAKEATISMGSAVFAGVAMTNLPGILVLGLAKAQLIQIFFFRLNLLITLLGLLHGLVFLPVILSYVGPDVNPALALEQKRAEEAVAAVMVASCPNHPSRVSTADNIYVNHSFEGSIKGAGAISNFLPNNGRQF

[2] = biological target: T1, NPC1-like intracellular cholesterol transporter 1; test: Displacement of [35S](2S,3S,4S,5R,6S)-6-(4-((2S,3R)-3-((S)-3-(4-fluorophenyl)-3-hydroxypropyl)-1-(4-(3-(methylsulfonamido)prop-1-ynyl)phenyl)-4-oxoazetidin-2-yl)phenoxy)-3,4,5-trihydroxytetrahydro-2H-pyran-2-carboxylic acid from NPC1L1 in human enterocyte brush border membrane
[3] = biological target: T2, Niemann-Pick C1-like 1 protein (Macaca mulatta, UniProt A0MJA5); test: Displacement of [35S](2S,3S,4S,5R,6S)-6-(4-((2S,3R)-3-((S)-3-(4-fluorophenyl)-3-hydroxypropyl)-1-(4-(3-(methylsulfonamido)prop-1-ynyl)phenyl)-4-oxoazetidin-2-yl)phenoxy)-3,4,5-trihydroxytetrahydro-2H-pyran-2-carboxylic acid from NPC1L1 in rhesus monkey enterocyte brush border membrane
T2 sequence (A0MJA5 whole entry): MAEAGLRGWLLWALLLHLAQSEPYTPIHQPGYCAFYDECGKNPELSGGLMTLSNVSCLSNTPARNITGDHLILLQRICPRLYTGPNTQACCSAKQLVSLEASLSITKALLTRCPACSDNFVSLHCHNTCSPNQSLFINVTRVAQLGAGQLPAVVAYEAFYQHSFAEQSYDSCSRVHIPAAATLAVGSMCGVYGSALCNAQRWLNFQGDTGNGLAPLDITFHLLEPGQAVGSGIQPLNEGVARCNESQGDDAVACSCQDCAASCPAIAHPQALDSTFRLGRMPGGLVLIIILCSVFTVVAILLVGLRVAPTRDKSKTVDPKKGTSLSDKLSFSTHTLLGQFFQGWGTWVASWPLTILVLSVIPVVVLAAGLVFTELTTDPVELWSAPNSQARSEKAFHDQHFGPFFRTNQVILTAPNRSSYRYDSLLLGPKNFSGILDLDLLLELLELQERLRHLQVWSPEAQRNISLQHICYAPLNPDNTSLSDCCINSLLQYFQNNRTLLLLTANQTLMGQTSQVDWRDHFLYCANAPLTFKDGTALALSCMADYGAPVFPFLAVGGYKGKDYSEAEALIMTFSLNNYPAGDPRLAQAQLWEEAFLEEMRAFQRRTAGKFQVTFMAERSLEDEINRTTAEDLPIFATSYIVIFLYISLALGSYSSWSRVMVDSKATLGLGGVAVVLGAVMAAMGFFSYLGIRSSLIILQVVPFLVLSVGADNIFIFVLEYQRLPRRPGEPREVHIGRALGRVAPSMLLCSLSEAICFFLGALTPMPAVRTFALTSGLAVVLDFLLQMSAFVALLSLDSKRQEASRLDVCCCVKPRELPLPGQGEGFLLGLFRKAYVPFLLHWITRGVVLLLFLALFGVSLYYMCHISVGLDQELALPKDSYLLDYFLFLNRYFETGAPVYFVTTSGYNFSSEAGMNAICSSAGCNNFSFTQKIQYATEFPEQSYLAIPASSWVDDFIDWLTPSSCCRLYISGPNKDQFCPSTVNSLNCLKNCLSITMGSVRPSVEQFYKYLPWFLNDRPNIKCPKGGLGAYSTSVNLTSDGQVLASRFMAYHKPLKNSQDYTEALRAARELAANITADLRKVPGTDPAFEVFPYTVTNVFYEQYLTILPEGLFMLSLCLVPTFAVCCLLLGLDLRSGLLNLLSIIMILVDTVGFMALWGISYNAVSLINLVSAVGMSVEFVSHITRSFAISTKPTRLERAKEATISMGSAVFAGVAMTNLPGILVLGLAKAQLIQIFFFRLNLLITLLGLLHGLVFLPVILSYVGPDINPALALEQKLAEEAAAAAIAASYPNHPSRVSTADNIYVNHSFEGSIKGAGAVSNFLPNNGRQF

Mus musculus = test: Inhibition of plasma [3H]cholesterol absorption in C57BL/6 mouse at 0.2 ml in 0.25% methocel suspension, po dosed 30 mins before [3H]cholesterol administration measured after 1.5 to 5 hrs; type: functional, organism-based

## CS(=O)(=O)NCC#CN1C(=O)[C@H](CC[C@H](O)c2ccc(F)cc2)[C@H]1c1ccc(O[C@@H]2O[C@H](C(=O)O)[C@@H](O)[C@H](O)[C@H]2O)cc1
[1]
  pIC50: 8.15
[2]
  pIC50: 7.70
[3]
  pIC50: 7.70

## O=C(O)[C@H]1O[C@@H](Oc2ccc([C@@H]3[C@@H](CC[C@H](O)c4ccc(F)cc4)C(=O)N3c3ccc(F)cc3)cc2)[C@H](O)[C@@H](O)[C@@H]1O
[1]
  pIC50: 6.52
[2]
  pIC50: 6.52
[3]
  pIC50: 7.52

## CC(C)(C)c1ccc(C(=O)N2CCC3(CC2)C(=O)N(CC(=O)N2CCCCC2)CN3c2ccccc2)cc1
[1]
  pIC50: 5.60
[2]
  pIC50: 5.00
[3]
  pIC50: 4.11
Mus musculus
  inhibition: inactive

## O=C([C@@H]1C[C@@H](c2ccccc2)CN1C(=O)c1ccccc1)N1CCC2(C=Cc3ccccc32)CC1
[1]
  pIC50: 6.18
[2]
  pIC50: 5.28
[3]
  pIC50: 3.84
